Test results published in publication PMC10258805, “Nonpeptidic Oxazole-Based Prolyl Oligopeptidase Ligands with Disease-Modifying Effects on α-Synuclein Mouse Models of Parkinson’s Disease” (Journal of Medicinal Chemistry, 2023).
Entries after “also recorded” stand apart in the source; their conditions may differ.

What was measured:
PREP in HEK-293 cells = target: T1, PREP in HEK-293 cells (Homo sapiens, UniProt P48147); assay: Cellular thermal shift assay (CETSA); type: cell-based; details: 10 μM, 1 h
T1 construct: endogenous in cells; host or cells: HEK-293 (ATCC)
T1 sequence (P48147 1-710): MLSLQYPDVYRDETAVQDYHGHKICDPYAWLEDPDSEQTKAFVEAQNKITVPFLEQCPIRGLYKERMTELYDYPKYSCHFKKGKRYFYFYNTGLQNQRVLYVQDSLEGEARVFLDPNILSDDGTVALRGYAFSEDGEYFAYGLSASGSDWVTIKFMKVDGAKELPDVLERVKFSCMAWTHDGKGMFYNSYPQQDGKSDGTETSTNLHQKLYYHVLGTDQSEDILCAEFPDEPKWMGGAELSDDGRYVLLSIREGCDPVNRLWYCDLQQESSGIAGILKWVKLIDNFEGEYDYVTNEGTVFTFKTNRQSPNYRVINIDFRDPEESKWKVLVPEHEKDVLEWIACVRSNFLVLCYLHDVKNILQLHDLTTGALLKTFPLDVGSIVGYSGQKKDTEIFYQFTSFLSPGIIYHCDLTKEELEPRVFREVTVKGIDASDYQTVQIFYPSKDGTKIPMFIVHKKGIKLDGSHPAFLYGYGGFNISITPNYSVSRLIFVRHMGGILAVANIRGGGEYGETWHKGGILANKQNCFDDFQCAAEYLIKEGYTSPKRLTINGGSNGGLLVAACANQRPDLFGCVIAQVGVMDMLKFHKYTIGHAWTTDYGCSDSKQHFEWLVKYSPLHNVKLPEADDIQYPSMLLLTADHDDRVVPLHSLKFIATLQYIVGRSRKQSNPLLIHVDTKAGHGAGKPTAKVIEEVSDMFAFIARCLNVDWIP
Procedure: CETSA was performed as previously described.[41] HEK-293 cells were seeded to T25 flasks with a density of 1 × 10^6 cells. […] After the exposure, the cells were collected in PBS and aliquoted into 7 PCR tubes (100,000 cells/tube). The cells were prewarmed at 37 °C for 3 min, then heated to 37, 47, 50, 53, 56, 63, or 67 °C for 3 min and subsequently cooled at 25 °C for 3 min using a PCR Mastercycler (T100 Thermal Cycler, Bio-Rad). After heating, the cells were disrupted with two freeze–thaw cycles by submerging the tubes into liquid nitrogen and subsequently thawed by incubation at 25 °C for 3 min. The aggregated proteins were removed by centrifugation (at 20,000g for 20 min at 4 °C), and the soluble fractions were diluted with Laemmli buffer (Bio-Rad, Hercules, CA) and analyzed with Western blot as described above. The nondenaturated protein fractions (%) were calculated by comparing the intensities of temperature-treated cell samples to the corresponding cell samples from 37 °C.

[1] = tested on: pPP2Ac and PP2Ac in HEK-293 cells; assay: PP2A marker assay (Western blot); type: cell-based, human; details: HEK-293, 10 μM
SH-SY5Y cells = assay: Cell viability (MTT) in SH-SY5Y cells; type: cell-based, human; details: up to 100 μM, 24 h
Procedure: Toxicity testing of selected compounds
The impact of compounds on cell viability was assayed at the end of incubation period using a standard MTT assays as described earlier in Svarcbahs et al.11 and Myöhänen et al.12 HEK-293 and SH-SY5Y cells and mouse primary neurons were seeded onto 96-well plates (10,000 cells/well) and incubated overnight. Thereafter, the cells were incubated with 1, 10, and 100 µM of study compounds for 24 h (HEK-293 and SH-SY5Y cells) or 48 h (mouse primary neurons), followed by the measurement of mitochondrial […]
Figure S68. Selected oxazoles were tested for cell viability in an MTT assay after 24 h treatment in (A) HEK-293 cells and (B) SH-SY5Y cells and 48 h treatment in (C) mouse primary neurons. Even with the high […]
Data are presented as mean + […]
LC-MS detection of HUP-55 metabolites in the mouse brain
The same column and gradient was used with UPLC-HDMS analysis of the metabolites of HUP-55, as for the analysis of HUP-55 detailed in the experimental section of the article. The analyses were performed with ESI (+) resolution mode and the exact masses were analysed with UPLC-Synapt G2 QTOF/MS (Waters). The […]
Compound Retention time (min) m/z (M+H)+ Empirical formula

LC3BII in mouse brain = LC3BII in mouse brain (Western blot); type: in vivo; details: 10 mg/kg i.p., 45 min after injection
[2] = tested on: pPP2Ac and PP2Ac in mouse brain; assay: PP2A markers in mouse brain (Western blot); type: in vivo; details: 10 mg/kg i.p., 45 min after injection
[3] = tested on: oligomeric αSyn in AAV-αSyn-injected mice; assay: Oligomer-specific αSyn immunoreactivity (OD) in AAV-αSyn PD mouse model; details: 10 mg/kg/day minipump, 4 weeks
DPP4 = target: T2, DPP4 (Homo sapiens, UniProt P27487); assay: Close-relative enzyme specificity assay, DPP4; type: biochemical; details: 1 or 10 μM
T2 construct: DPPIV was purified from human seminal plasma; from tissue; host or cells: human seminal plasma
Procedure: DPP4: DPPIV was purified from human seminal plasma, as described previously.
DPP4 and DPP9: Ala-Pro-para-nitroanilide (pNA) was used as the substrate at the respective concentrations of 25 μM (DPP4) or 150 μM (DPP9) at pH 7.4 (0.05 M HEPES–NaOH buffer with 0.1% Tween-20, 0.1 mg/mL BSA, and 150 mM NaCl). […] Measurements were done on the Infinite 200 as above.

[4] = tested on: αSyn dimerization in HEK-293 PREP-KO cells; assay: αSyn-dimerization assay in PREP-KO cells; type: cell-based, human
LC3BII in HEK-293 cells = assay: Autophagy marker LC3BII assay (Western blot); type: cell-based, human; details: HEK-293, 10 μM

T2 sequence (P27487 whole entry): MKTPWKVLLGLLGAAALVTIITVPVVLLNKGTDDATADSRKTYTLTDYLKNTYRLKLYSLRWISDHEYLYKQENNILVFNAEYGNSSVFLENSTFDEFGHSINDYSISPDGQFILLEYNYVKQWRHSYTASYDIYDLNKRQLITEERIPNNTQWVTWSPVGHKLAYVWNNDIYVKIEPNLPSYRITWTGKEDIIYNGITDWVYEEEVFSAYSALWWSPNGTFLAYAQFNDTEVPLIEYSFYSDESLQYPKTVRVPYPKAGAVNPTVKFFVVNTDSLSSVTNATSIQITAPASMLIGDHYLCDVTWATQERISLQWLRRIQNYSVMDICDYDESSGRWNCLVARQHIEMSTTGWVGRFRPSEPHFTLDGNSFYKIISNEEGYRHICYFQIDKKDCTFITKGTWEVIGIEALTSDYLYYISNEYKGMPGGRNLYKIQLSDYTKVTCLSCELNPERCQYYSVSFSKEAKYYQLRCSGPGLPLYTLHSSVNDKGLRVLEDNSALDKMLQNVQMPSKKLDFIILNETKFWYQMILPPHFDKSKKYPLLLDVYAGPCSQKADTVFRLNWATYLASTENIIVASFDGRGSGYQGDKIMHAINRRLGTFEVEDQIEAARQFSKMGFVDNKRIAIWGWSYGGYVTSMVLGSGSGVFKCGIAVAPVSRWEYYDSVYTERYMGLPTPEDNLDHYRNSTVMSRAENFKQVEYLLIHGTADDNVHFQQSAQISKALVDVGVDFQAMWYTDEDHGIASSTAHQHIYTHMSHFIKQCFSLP

Cc1nc(CCCc2ccccc2)oc1N1CCC[C@H]1C#N [HUP-55, (S)-1-(4-Methyl-2-(3-phenylpropyl)oxazol-5-yl)pyrrolidine-2-carbonitrile]
fitted mean aggregation temperature (PREP in HEK-293 cells): 53.19 °C | increase in the fitted mean aggregation temperature (PREP in HEK-293 cells; vs DMSO): 3.01 °C | pPP2Ac levels (in words) ([1]; 4 h): significant decrease in pPP2Ac levels | total PP2Ac levels (in words) ([1]; 4 h): elevated total PP2Ac levels | PP2Ac levels (in words) ([1]; 24 h): significantly elevated | toxicity (cell viability) (SH-SY5Y cells): None of the compounds caused any toxicity | levels of LC3BII in mouse brain (in words) (LC3BII in mouse brain): significantly elevated | inactive pPP2Ac levels in mouse brain (in words) [2]: decreased inactive pPP2Ac levels, but this was not significant | levels of PP2Ac in mouse brain (in words) [2]: significantly increased the levels of PP2Ac | OD of oligomeric αSyn in the SNpc (in words) ([3]; vs vehicle-treated group): did not significantly reduce | OD of oligomer-specific αSyn in the STR (in words) ([3]; vs vehicle-treated mice): decreased the OD of oligomer-specific αSyn | inhibition of DPP4 (DPP4): no inhibition; also recorded: does not inhibit | effect on αSyn dimerization [4]: no effect on αSyn dimerization | LC3BII levels (in words) (LC3BII in HEK-293 cells; 4 h): significant increase in LC3BII levels | LC3BII levels (in words) (LC3BII in HEK-293 cells; 24 h): significantly elevated LC3BII levels
